Data as given in patent publication US20070098735A1, “Methods for the Elimination of Pathogens and Other Particulate Agents” (priority 2005, published 2007).

Assays:
[1] = test system: Murine macrophage lines (RAW264.7, J774.A1 or RAW264NO-); assay: Phagocytosis assay in vitro (uptake of Alexa Fluor 488-labeled particles); format: cell-based; set-up: effect of LR-disrupting drugs on HSP70-mediated phagocytosis: dose or concentration left out as unconfirmed; details: for uptake of labeled S. cerevisiae as compared to treatment with HSP70 (specificity controls): equimolar to HSP70 100 μg/ml, BSA 100 μg/ml, concavalin A 6 μg/ml, adjuvants 10 μl/well, ADP, ATP 3 mM
Method: Phagocytosis Assay in vitro. RAW 264.7, RAW264.7 (NO-) and J774A.1 cells were cultured in DMEM or RPMI (RAW NO-) with 10% FCS, harvested, and washed. 3×10^5 cells/well were incubated in serum-free Earle's minimal essential medium (EMEM) in a 24-well plate for 1 hour at 37° C. Alexa Fluor® 488-labeled particles (inert polystyrene microspheres; or yeast, Saccharomyces cerevisiae or Gram-negative bacteria, Escherichia coli, 40 particles/macrophage) were added and co-incubated in a dark environment for 60 minutes in serum free EMEM with or without HSPs, LPS, or control proteins. At the end of 60 minutes incubation, the plate was covered in a dark container on ice. Specific measures were taken to exclude the fluorescence that resulted from particles that were outside of the cell or sticking to the surface of the cell. […] Specifically, trypan blue (0.8 mg/ml) was added for 60 seconds and plates were analyzed immediately using FluorImager SI (Molecular Dynamics/Amersham). Since the emission of Alexa Fluor® 488, about 519 nm at an excitation of about 490 nm, falls within the absorbance range of trypan blue (475-675 nm), the fluorescence of the sample only represents the intracellular fluorescence. External or surface-bound fluorescence is quenched. Using Student's t test, the results were analyzed and P-values were calculated.
HSP-mediated phagocytosis was quantified by measuring the internalized fluorescence measured by FluorImager SI and Relative Mean Fluorescence Intensity (RMFI) was compared between the treatment groups (as indicated). All the treatment groups were compared to medium alone using the Student's t test and significance denoted by P<0.01. The error bar represents one standard deviation. The results shown are a cumulative analysis of 3 experiments, 3 wells/group.

[2] = test system: full thickness surgical wounds on the dorsum of BALB/cJ mice; assay: Closure of full thickness surgical wounds, percent wound closure; format: in vivo; details: day 2 post surgery; for wound healing on day 2: 30 μg/dose
Method: Surgery and Treatment. Mice were anesthetized using Ketamine (2.0 mg/mouse) and Xylazine (0.1 mg/mouse) were administered intraperitoneally (IP) and the dorsal skin was shaved. After sterile prepping of the area, a full thickness circular wound, 8 mm diameter, was made on the dorsal skin using a disposable biopsy punch (Miltex Inc, York, Pa.) on the midline of the dorsum approximately at the iliac crest. The mice were then randomly assigned into the treatment groups. Initial wound measurements were performed while the mice were still anesthetized. Mice were then treated on days 0, 2, 4, and 6 unless otherwise specified. All agents used as treatment were diluted in 0.5 ml of PBS and injected using a 25-gauge needle in the subcutaneous space in the nape of the neck. The surgical procedures, post-operative monitoring, and safety concerns were approved by the Institutional Animal Care and Usage Committee.
Measurements and Analysis. Wound healing of open wounds is a complex process with many parameters to consider. […] The wound surface area was determined by measuring the craniocaudal and lateromedial distances using vernier calipers in perpendicular axis on days 0, 2, 4, 6, 9, and 11 postoperatively unless noted. Changes in wound area were expressed as percent wound closure. Wound closure data was plotted as average percent wound closure ±SEM unless otherwise noted. All calculations and data analysis were performed using Microsoft Excel and Sigma Plot. Sigma Plot was used to perform Student's t-tests for reported P values.
Full thickness surgical wounds were created on the dorsum of BALB/cJ mice as described in Methods. Wounds were made on day 0. Subsequently, the wounds were treated with exogenous injections of HSP70, HSP90, gp96 (30 μg/dose) or buffer administered subcutaneously (SC) on days 0, 2, 4 and 6 following surgery (FIG. 6A). The wounds were measured on days 0, 2, 4, 6, 9, 11 unless otherwise noted. Wounds were measured serially, percent wound closure was calculated and plotted against time in order to quantitate the rate of healing by secondary intention. […] Data is plotted as average percent wound closure ±SEM on days indicated. Two mice from each treatment group (PBS (n=12), HSP70 (n=11), HSP90 (n=12), and gp96 (n=11)) were sacrificed for histology on days 2, 4, and 6 post-surgery (data not shown). The P values obtain using the Student's t-test.
Results are of average percent wound closure ±SEM on day 2 post surgery. The *P values were obtained using the Student's t-test by comparing HSP treatment to all of the non-HSP control treatments. The least significant P value was reported. […] Doses higher than 50 μg/dose were not tested.

[3] = test system: CD4+ T cells purified from spleens of DO 11.10 mice; assay: Proliferation of CD4+ T cells after MHC-II presentation of OVA-coated yeast by macrophages (FACS); format: cell-based; details: cytochalasin-D treatment
Method: Proliferation of CD4+ T cells and INF-γ (interferon gamma) release. Unlabeled S. cerevisiae (80 μg) was incubated with excess chicken ovary albumin (OVA) at 37° C. for 1 hour and washed repeatedly to eliminate free OVA protein. S. cerevisiae-OVA complexes (OVA-coated yeast) were administered to macrophages treated with or without HSP70. Macrophages were then washed and irradiated at 12,000 rads and assessed for viability by trypan blue exclusion. Subsequently, they were co-cultured with CD4+ T lymphocytes that were purified from spleens of DO 11.10 mice and labeled with carboxyfluoroscein succinimidyl ester (CSFE). […] Following the 48-hour incubation, proliferation of CD4+ cells was determined with FACS and IFN-γ release in the supernatant was tested by enzyme-linked immunosorbent assay (ELISA; Pierce, Ill.).
Alexafluor labeled S. cerevisiae were coated with whole ovalbumin (OVA) protein 1 mg/ml by co-incubation at 37° C. for 20 minutes and washed until free OVA protein was removed (washes were tested by gel electrophoresis using SDS-PAGE and immunoblotting). […] Resultant proliferation of the CSFE-labeled CD4+ was measured by FACS as an indirect measure of the amount of OVA protein processed and its peptide epitope presented in context of MHC-II. […]

## C=CCn1c(=O)n([C@@H]2O[C@H](CO)[C@@H](O)[C@H]2O)c2nc(N)[nH]c(=O)c21 [LRB, Loxoribine]
[1]; LRB 0-330 μM, HSP70 100 μg/ml
  dose dependence of inhibitory effect on HSP70-mediated phagocytosis: titratable by dose

## C[C@@H]1[C@H](O)[C@@H](C)/C=C/C=C/CC/C=C/C=C/C=C/C=C/C(O[C@H]2O[C@H](C)[C@@H](O)[C@H](N)[C@@H]2O)CC2O[C@](O)(CC(O)C(O)CCC(O)CC(O)CC(O)CC(=O)O[C@H]1C)CC(O)C2C(=O)O (some centres unmarked) [nystatin]
[1]; nystatin or MCD, labeled yeast 40 particles/macrophage
  effect of LR-disrupting drugs on HSP70-mediated phagocytosis: HSP70-mediated phagocytosis was inhibited

## Nc1ncnc2c1ncn2[C@@H]1O[C@H](COP(=O)(O)OP(=O)(O)OP(=O)(O)O)[C@@H](O)[C@H]1O [ATP, adenosine triphosphate]
[1]
  uptake of labeled S. cerevisiae as compared to treatment with HSP70 (specificity controls): ineffective

## bovine serum albumin [BSA]
[1]
  uptake of labeled S. cerevisiae as compared to treatment with HSP70 (specificity controls): None of control proteins used enhanced uptake

## concavalin A
[1]
  uptake of labeled S. cerevisiae as compared to treatment with HSP70 (specificity controls): None of control proteins used enhanced uptake

## O=c1[nH]c(=O)c2[nH]c(=O)[nH]c2[nH]1 [uric acid, reference compound]
[2]
  wound healing on day 2: 13%
  wound closure of non-HSP controls compared to PBS control: not significantly different to the PBS control

## beta galactosidase
[1]
  uptake of labeled S. cerevisiae as compared to treatment with HSP70 (specificity controls): None of control proteins used enhanced uptake

## Nc1ncnc2c1ncn2[C@@H]1O[C@H](COP(=O)(O)OP(=O)(O)O)[C@@H](O)[C@H]1O [ADP, adenosine diphosphate]
[1]
  uptake of labeled S. cerevisiae as compared to treatment with HSP70 (specificity controls): ineffective

## C=C1[C@@H](C)[C@H]2[C@H](Cc3ccccc3)NC(=O)[C@]23[C@H](OC(C)=O)/C=C/[C@@](C)(O)C(=O)[C@@H](C)C/C=C/[C@H]3[C@@H]1O [cytochalasin-D, reference compound]
[3]
  effect on CD4+ proliferation caused by HSP70-treatment: abrogated the proliferation caused by HSP70-treatment
[1]; cytochalasin-D 4 μM with HSP70
  effect on HSP70-mediated internalization (actin polymerization inhibited): showed inhibition of the effects of HSP70

B1: phosphorylase B (protein, UniProt P00489 2-843, looked up)
Glycogen phosphorylase, …: SRPLSDQEKRKQISVRGLAGVENVTELKKNFNRHLHFTLVKDRNVATPRDYYFALAHTVRDHLVGRWIRTQQHYYEKDPKRIYYLSLEFYMGRTLQNTMVNLALENACDEATYQLGLDMEELEEIEEDAGLGNGGLGRLAACFLDSMATLGLAAYGYGIRYEFGIFNQKICGGWQMEEADDWLRYGNPWEKARPEFTLPVHFYGRVEHTSQGAKWVDTQVVLAMPYDTPVPGYRNNVVNTMRLWSAKAPNDFNLKDFNVGGYIQAVLDRNLAENISRVLYPNDNFFEGKELRLKQEYFVVAATLQDIIRRFKSSKFGCRDPVRTNFDAFPDKVAIQLNDTHPSLAIPELMRVLVDLERLDWDKAWEVTVKTCAYTNHTVLPEALERWPVHLLETLLPRHLQIIYEINQRFLNRVAAAFPGDVDRLRRMSLVEEGAVKRINMAHLCIAGSHAVNGVARIHSEILKKTIFKDFYELEPHKFQNKTNGITPRRWLVLCNPGLAEIIAERIGEEYISDLDQLRKLLSYVDDEAFIRDVAKVKQENKLKFAAYLEREYKVHINPNSLFDVQVKRIHEYKRQLLNCLHVITLYNRIKKEPNKFVVPRTVMIGGKAAPGYHMAKMIIKLITAIGDVVNHDPVVGDRLRVIFLENYRVSLAEKVIPAADLSEQISTAGTEASGTGNMKFMLNGALTIGTMDGANVEMAEEAGEENFFIFGMRVEDVDRLDQRGYNAQEYYDRIPELRQIIEQLSSGFFSPKQPDLFKDIVNMLMHHDRFKVFADYEEYVKCQERVSALYKNPREWTRMVIRNIATSGKFSSDRTIAQYAREIWGVEPSRQRLPAPDEKIP
notes: control protein of molecular weight corresponding to the HSPs
[2]
  wound healing on day 2: 19%
  wound closure of non-HSP controls compared to PBS control: not significantly different to the PBS control
[1]
  uptake of labeled S. cerevisiae as compared to treatment with HSP70 (specificity controls): None of control proteins used enhanced uptake
